Test results reported in US7470684B2, “Spiropiperidine derivatives as NK3 antagonists” (Hoffmann-La Roche Inc., priority 2007, dated 2008).
Like-named read-outs stand apart in the source and are kept apart here.

Target: T1, human NK3 receptor (Homo sapiens, UniProt P29371)
T1 construct: expressed in transfected cells; host or cells: HEK293 cells, transiently transfected; membranes
T1 sequence (P29371 1-465): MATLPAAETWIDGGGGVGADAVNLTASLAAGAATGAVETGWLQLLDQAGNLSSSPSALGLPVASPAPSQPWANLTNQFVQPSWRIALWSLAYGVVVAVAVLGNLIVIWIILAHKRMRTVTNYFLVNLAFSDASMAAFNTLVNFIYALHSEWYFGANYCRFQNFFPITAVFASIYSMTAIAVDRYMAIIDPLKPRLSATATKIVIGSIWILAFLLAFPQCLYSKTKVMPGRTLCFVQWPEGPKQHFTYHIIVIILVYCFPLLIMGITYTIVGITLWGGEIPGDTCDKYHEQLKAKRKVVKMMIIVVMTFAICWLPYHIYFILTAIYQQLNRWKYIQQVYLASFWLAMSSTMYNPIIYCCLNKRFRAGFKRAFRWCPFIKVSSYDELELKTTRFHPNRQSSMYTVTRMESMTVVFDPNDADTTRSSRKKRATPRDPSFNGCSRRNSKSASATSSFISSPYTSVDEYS
Experiment: [3H]SR142801 competition binding assay
Method: [^3H]SR142801 Competition Binding Assay
hNK3 receptor binding experiment were performed using [^3H]SR142801 (Catalog No. TRK1035, specific activity: 74.0 Ci/mmol, Amersham, GE Healthcare UK limited, Buckinghamshire, UK) and membrane isolated from HEK293 cells transiently expressing recombinant human NK3 receptor. After thawing, the membrane homogenates were centrifuged at 48,000×g for 10 min at 4° C., the pellets were resuspended in the 50 mM Tris-HCl, 4 mM MnCl2, 1 μM phosphoramidon, 0.1% BSA binding buffer at pH 7.4 to a final assay concentration of 5 μg protein/well. For inhibition experiments, membranes were incubated with [^3H]SR142801 at a concentration equal to KD value of radioligand and 10 concentrations of the inhibitory compound (0.0003-10 μM) (in a total reaction volume of 500 μl) for 75 min at room temperature (RT). At the end of the incubation, membranes were filtered onto unitfilter (96-well white microplate with bonded GF/C filter preincubated 1 h in 0.3% PEI+0.3% BSA, Packard BioScience, Meriden, Conn.) with a Filtermate 196 harvester (Packard BioScience) and washed 4 times with ice-cold 50 mM Tris-HCl, pH 7.4 buffer. Nonspecific binding was measured in the presence of 10 μM SB222200 for both radioligands. The radioactivity on the filter was counted (5 min) on a Packard Top-count microplate scintillation counter with quenching correction after addition of 45 μl of microscint 40 (Canberra Packard S.A., Zürich, Switzerland) and shaking for 1 h. Inhibition curves were fitted according to the Hill equation: y=100/(1+(x/IC50)^nH), where nH=slope factor using Excel-fit 4 software (Microsoft). IC50 values were derived from the inhibition curve and the affinity constant (Ki) values were calculated using the Cheng-Prussoff equation Ki=IC50/(1+[L]/KD) where [L] is the concentration of radioligand and KD is its dissociation constant at the receptor, derived from the saturation isotherm. All experiments were performed in duplicate and the mean±standard error (SEM) of the individual Ki values was calculated.

[1] = hNK3 Ki, [3H]SR142801 displacement, membranes of HEK293 cells transiently expressing recombinant human NK3 receptor
[2] = [3H]SR142801 displacement, membranes of HEK293 cells transiently expressing recombinant human NK3 receptor, read-out: hNK3 Ki

CN(Cc1cccc(Cl)c1)C(=O)C(CCN1CCC2(CC1)OC(=O)N(C)c1ccc(F)cc12)c1ccc(Cl)c(Cl)c1 (stereo not drawn) [Example 40, N-(3-chlorobenzyl)-2-(3,4-dichlorophenyl)-4-(6-fluoro-1-methyl-2-oxo-1,2-dihydro-1′H-spiro[3,1-benzoxazine-4,4′-piperidin]-1′-yl)-N-methylbutanamide]
Ki [1]: 1.1 nM

CN(Cc1ccc(Cl)cc1)C(=O)C(CCN1CCC2(CC1)OC(=O)N(C)c1ccc(F)cc12)c1ccc(Cl)c(Cl)c1 (stereo not drawn) [Example 42, N-(4-chlorobenzyl)-2-(3,4-dichlorophenyl)-4-(6-fluoro-1-methyl-2-oxo-1,2-dihydro-1′H-spiro[3,1-benzoxazine-4,4′-piperidin]-1′-yl)-N-methylbutanamide]
Ki: 0.8 nM

CN1C(=O)OC2(CCN(CCC(C(=O)N3CCC(F)CC3)c3ccc(Cl)c(Cl)c3)CC2)c2cc(F)ccc21 (stereo not drawn) [Example 43, 1′-[3-(3,4-dichlorophenyl)-4-(4-fluropiperidin-1-yl)-4-oxobutyl]-6-fluoro-1-methylspiro[3,1-benzoxazine-4,4′-piperidin]-2(1H)-one]
Ki: 61.9 nM

CN(Cc1ccccc1Cl)C(=O)C(CCN1CCC2(CC1)OC(=O)N(C)c1ccc(F)cc12)c1ccc(Cl)c(Cl)c1 (stereo not drawn) [Example 44, N-(2-chlorobenzyl)-2-(3,4-dichlorophenyl)-4-(6-fluoro-1-methyl-2-oxo-1,2-dihydro-1′H-spiro[3,1-benzoxazine-4,4′-piperidin]-1′-yl)-N-methylbutanamide]
Ki [1]: 1.6 nM

O=C1Nc2ccc(F)cc2C2(CCN(CCC(C(=O)NCc3ccc(Cl)cc3Cl)c3ccc(F)cc3)CC2)O1 (stereo not drawn) [Example 47, N-(2,4-dichlorobenzyl)-4-(6-fluoro-2-oxo-1,2-dihydro-1′H-spiro[3,1-benzoxazine-4,4′-piperidin]-1′-yl)-2-(4-fluorophenyl)butanamide]
Ki [1]: 82.7 nM

O=C1Nc2ccc(F)cc2C2(CCN(CCC(C(=O)NCc3ccccc3OC(F)(F)F)c3ccc(F)cc3)CC2)O1 (stereo not drawn) [Example 49, 4-(6-fluoro-2-oxo-1,2-dihydro-1′H-spiro[3,1-benzoxazine-4,4′-piperidin]-1′-yl)-2-(4-fluorophenyl)-N-[2-(trifluoromethoxy)benzyl]butanamide]
Ki [1]: 90.9 nM

CN(Cc1ccc(C(F)(F)F)cc1)C(=O)C(CCN1CCC2(CC1)OC(=O)Nc1ccc(F)cc12)c1ccc(F)cc1 (stereo not drawn) [Example 51, 4-(6-fluoro-2-oxo-1,2-dihydro-1′H-spiro[3,1-benzoxazine-4,4′-piperidin]-1′-yl)-2-(4-fluorophenyl)-N-methyl-N-[4-(trifluoromethyl)benzyl]butanamide]
Ki [1]: 32.2 nM

Cc1ccc(CN(C)C(=O)C(CCN2CCC3(CC2)OC(=O)Nc2ccc(F)cc23)c2ccc(F)cc2)cc1 (stereo not drawn) [Example 56, 4-(6-fluoro-2-oxo-1,2-dihydro-1′H-spiro[3,1-benzoxazine-4,4′-piperidin]-1′-yl)-2-(4-fluorophenyl)-N-methyl-N-(4-methylbenzyl)butanamide]
Ki [1]: 66.4 nM

CN(Cc1cccc(C(F)(F)F)c1)C(=O)C(CCN1CCC2(CC1)OC(=O)Nc1ccc(F)cc12)c1ccc(F)cc1 (stereo not drawn) [Example 58, 4-(6-fluoro-2-oxo-1,2-dihydro-1′H-spiro[3,1-benzoxazine-4,4′-piperidin]-1′-yl)-2-(4-fluorophenyl)-N-methyl-N-[3-(trifluoromethyl)benzyl]butanamide]
Ki [1]: 94.9 nM

CN(Cc1ccc(F)cc1)C(=O)C(CCN1CCC2(CC1)OC(=O)Nc1ccc(F)cc12)c1ccc(F)cc1 (stereo not drawn) [Example 59, N-(4-fluorobenzyl)-4-(6-fluoro-2-oxo-1,2-dihydro-1′H-spiro[3,1-benzoxazine-4,4′-piperidin]-1′-yl)-2-(4-fluorophenyl)-N-methylbutanamide]
Ki [1]: 48.9 nM

O=C1Nc2ccc(F)cc2C2(CCN(CCC(C(=O)NCc3cccc(C(F)(F)F)c3)c3ccc(F)cc3)CC2)O1 (stereo not drawn) [Example 61, 4-(6-fluoro-2-oxo-1,2-dihydro-1′H-spiro[3,1-benzoxazine-4,4′-piperidin]-1′-yl)-2-(4-fluorophenyl)-N-[3-(trifluoromethyl)benzyl]butanamide]
Ki: 88.5 nM

O=C1Nc2ccc(F)cc2C2(CCN(CCC(C(=O)NCc3ccc(Cl)cc3Cl)c3ccc(Cl)c(Cl)c3)CC2)O1 (stereo not drawn) [Example 62, N-(2,4-dichlorobenzyl)-2-(3,4-dichlorophenyl)-4-(6-fluoro-2-oxo-1,2-dihydro-1′H-spiro[3,1-benzoxazine-4,4′-piperidin]-1′-yl)butanamide]
Ki [2]: 10 nM

CN(Cc1ccccc1)C(=O)C(CCN1CCC2(CC1)OC(=O)Nc1ccc(F)cc12)c1ccc(Cl)c(Cl)c1 (stereo not drawn) [Example 64, N-benzyl-2-(3,4-dichlorophenyl)-4-(6-fluoro-2-oxo-1,2-dihydro-1′H-spiro[3,1-benzoxazine-4,4′-piperidin]-1′-yl)-N-methylbutanamide]
Ki [1]: 12.5 nM

CN(CCc1ccccc1)C(=O)C(CCN1CCC2(CC1)OC(=O)Nc1ccc(F)cc12)c1ccc(Cl)c(Cl)c1 (stereo not drawn) [Example 65, 2-(3,4-dichlorophenyl)-4-(6-fluoro-2-oxo-1,2-dihydro-1′H-spiro[3,1-benzoxazine-4,4′-piperidin]-1′-yl)-N-methyl-N-(2-phenylethyl)butanamide]
Ki [2]: 70.7 nM

O=C1Nc2ccc(F)cc2C2(CCN(CCC(C(=O)NCc3ccccc3OC(F)(F)F)c3ccc(Cl)c(Cl)c3)CC2)O1 (stereo not drawn) [Example 66, 2-(3,4-dichlorophenyl)-4-(6-fluoro-2-oxo-1,2-dihydro-1′H-spiro[3,1-benzoxazine-4,4′-piperidin]-1′-yl)-N-[2-(trifluoromethoxy)benzyl]butanamide]
Ki [1]: 28.8 nM

O=C1Nc2ccc(F)cc2C2(CCN(CCC(C(=O)NCc3cccc(OC(F)F)c3)c3ccc(Cl)c(Cl)c3)CC2)O1 (stereo not drawn) [Example 67, 2-(3,4-dichlorophenyl)-N-[3-(difluoromethoxy)benzyl]4-(6-fluoro-2-oxo-1,2-dihydro-1′H-spiro[3,1-benzoxazine-4,4′-piperidin]-1′-yl)butanamide]
Ki [1]: 19 nM

CN(Cc1ccc(C(F)(F)F)cc1)C(=O)C(CCN1CCC2(CC1)OC(=O)Nc1ccc(F)cc12)c1ccc(Cl)c(Cl)c1 (stereo not drawn) [Example 68, 2-(3,4-dichlorophenyl)-4-(6-fluoro-2-oxo-1,2-dihydro-1′H-spiro[3,1-benzoxazine-4,4′-piperidin]-1′-yl)-N-methyl-N-[4-(trifluoromethyl)benzyl]butanamide]
Ki [1]: 1.4 nM

CN(Cc1ccc(N2CCOCC2)cc1)C(=O)C(CCN1CCC2(CC1)OC(=O)Nc1ccc(F)cc12)c1ccc(Cl)c(Cl)c1 (stereo not drawn) [Example 70, 2-(3,4-dichlorophenyl)-4-(6-fluoro-2-oxo-1,2-dihydro-1′H-spiro[3,1-benzoxazine-4,4′-piperidin]-1′-yl)-N-methyl-N-(4-morpholin-4-ylbenzyl)butanamide]
Ki [2]: 98 nM

CN(Cc1ccc(-c2ccncc2)cc1)C(=O)C(CCN1CCC2(CC1)OC(=O)Nc1ccc(F)cc12)c1ccc(Cl)c(Cl)c1 (stereo not drawn) [Example 72, 2-(3,4-dichlorophenyl)-4-(6-fluoro-2-oxo-1,2-dihydro-1′H-spiro[3,1-benzoxazine-4,4′-piperidin]-1′-yl)-N-methyl-N-(4-pyridin-4-ylbenzyl)butanamide]
Ki [2]: 18.7 nM

COc1ccc(CN(C)C(=O)C(CCN2CCC3(CC2)OC(=O)Nc2ccc(F)cc23)c2ccc(Cl)c(Cl)c2)cc1F (stereo not drawn) [Example 74, 2-(3,4-dichlorophenyl)-N-(3-fluoro-4-methoxybenzyl)-4-(6-fluoro-2-oxo-1,2-dihydro-1′H-spiro[3,1-benzoxazine-4,4′-piperidin]-1′-yl)-N-methylbutanamide]
Ki [1]: 5.5 nM

COc1cc(CN(C)C(=O)C(CCN2CCC3(CC2)OC(=O)Nc2ccc(F)cc23)c2ccc(Cl)c(Cl)c2)ccc1OC(F)F (stereo not drawn) [Example 75, 2-(3,4-dichlorophenyl)-N-[4(difluoromethoxy)-3-methoxybenzyl]4-(6-fluoro-2-oxo-1,2-dihydro-1′H-spiro[3,1-benzoxazine-4,4′-piperidin]-1′-yl)-N-methylbutanamide]
Ki [1]: 7.7 nM
